# In the NIST ThermoML archive (doi:10.1021/je060139a):
# “And” between values parts separate entries of the source, which are not always exact repeats. Equal values may be shown once. ± gives the expanded uncertainty stated by the source.
# Tests used:
# [1] = xn = mol fraction of the nth substance listed; details: Wilhelmy plate method, x2 = 0
# [2] = refractive index (Na D-line) (dimensionless); xn = mol fraction of the nth substance listed; details: 100.5 kPa, Liquid, Standard Abbe refractometry, x2 = 0
# [3] = refractive index (Na D-line) (dimensionless); details: 101.33 kPa, Liquid, Standard Abbe refractometry
# [4] = for surface tension liquid-gas: Wilhelmy plate method; for mass density: 298.15 K, 101.33 kPa, Liquid
compound,measurement,setting,value
CCO [ethanol] + CCOC(=O)c1ccccc1O,surface tension liquid-gas,[1]; 288.15 K,23 ± 0.4 mN/m
same,surface tension liquid-gas,[1]; 298.18 K,22.3 ± 0.4 mN/m
same,surface tension liquid-gas,[1]; 308.15 K,21.5 ± 0.4 mN/m
same,surface tension liquid-gas,[1]; 318.15 K,20.6 ± 0.4 mN/m
same,refractive index,[2]; 288.15 K,1.36333 ± 0.00031
same,refractive index,[2]; 298.18 K,1.35941 ± 0.00031
same,refractive index,[2]; 308.15 K,1.35531 ± 0.00031
same,refractive index,[2]; 318.15 K,1.35148 ± 0.00031
CCO [ethanol] + CC(=O)OCc1ccccc1,surface tension liquid-gas,[1]; 288.15 K,23 ± 0.4 mN/m
same,surface tension liquid-gas,[1]; 298.18 K,22.3 ± 0.4 mN/m
same,surface tension liquid-gas,[1]; 308.15 K,21.5 ± 0.4 mN/m
same,surface tension liquid-gas,[1]; 318.15 K,20.6 ± 0.4 mN/m
same,refractive index,[2]; 288.15 K,1.36333 ± 0.00031
same,refractive index,[2]; 298.18 K,1.35941 ± 0.00031
same,refractive index,[2]; 308.15 K,1.35531 ± 0.00031
same,refractive index,[2]; 318.15 K,1.35148 ± 0.00031
CCC(=O)OCc1ccccc1 [benzyl propanoate],refractive index,[3]; 288.15 K,1.4995 ± 0.00034
same,refractive index,[3]; 298.18 K,1.49498 ± 0.00034
same,refractive index,[3]; 308.15 K,1.49074 ± 0.00034
same,refractive index,[3]; 318.15 K,1.48611 ± 0.00034
same,surface tension liquid-gas,[4]; 288.15 K,36 ± 0.41 mN/m
same,mass density,[4],1027.6 ± 0.4 kg/m3
same,surface tension liquid-gas,[4]; 298.18 K,34.8 ± 0.41 mN/m
same,surface tension liquid-gas,[4]; 308.15 K,33.6 ± 0.41 mN/m
same,surface tension liquid-gas,[4]; 318.15 K,32.4 ± 0.41 mN/m
CCO [ethanol] + CCC(=O)OCc1ccccc1,surface tension liquid-gas,[1]; 288.15 K,23 ± 0.4 mN/m
same,surface tension liquid-gas,[1]; 298.18 K,22.3 ± 0.4 mN/m
same,surface tension liquid-gas,[1]; 308.15 K,21.5 ± 0.4 mN/m
same,surface tension liquid-gas,[1]; 318.15 K,20.6 ± 0.4 mN/m
same,refractive index,[2]; 288.15 K,1.36333 ± 0.00031
same,refractive index,[2]; 298.18 K,1.35941 ± 0.00031
same,refractive index,[2]; 308.15 K,1.35531 ± 0.00031
same,refractive index,[2]; 318.15 K,1.35148 ± 0.00031
CCO [ethanol],refractive index,[3]; 288.15 K,1.3633 ± 0.0003 and 1.36333 ± 0.00031
same,refractive index,[3]; 298.18 K,1.3594 ± 0.0003 and 1.35941 ± 0.00031
same,refractive index,[3]; 308.15 K,1.3553 ± 0.0003 and 1.35531 ± 0.00031
same,refractive index,[3]; 318.15 K,1.3515 ± 0.0003 and 1.35148 ± 0.00031
same,surface tension liquid-gas,[4]; 288.15 K,23 ± 0.4 mN/m
same,mass density,[4],785 ± 0.24 kg/m3
same,surface tension liquid-gas,[4]; 298.18 K,22.3 ± 0.4 mN/m
same,surface tension liquid-gas,[4]; 308.15 K,21.5 ± 0.4 mN/m
same,surface tension liquid-gas,[4]; 318.15 K,20.6 ± 0.4 mN/m
COC(=O)c1ccccc1 [methyl benzoate],refractive index,[3]; 288.15 K,1.51915 ± 0.00035
same,refractive index,[3]; 298.18 K,1.51467 ± 0.00035
same,refractive index,[3]; 308.15 K,1.50993 ± 0.00035
same,refractive index,[3]; 318.15 K,1.50514 ± 0.00035
same,surface tension liquid-gas,[4]; 288.15 K,38.6 ± 0.43 mN/m
same,mass density,[4],1083.92 ± 0.68 kg/m3
same,surface tension liquid-gas,[4]; 298.18 K,37.2 ± 0.43 mN/m
same,surface tension liquid-gas,[4]; 308.15 K,35.8 ± 0.43 mN/m
same,surface tension liquid-gas,[4]; 318.15 K,34.8 ± 0.42 mN/m
CCOC(=O)c1ccccc1O [ethyl 2-hydroxybenzoate],refractive index,[3]; 288.15 K,1.52481 ± 0.00032
same,refractive index,[3]; 298.18 K,1.52022 ± 0.00032
same,refractive index,[3]; 308.15 K,1.51573 ± 0.00032
same,refractive index,[3]; 318.15 K,1.51116 ± 0.00032
same,surface tension liquid-gas,[4]; 288.15 K,37.5 ± 0.41 mN/m
same,mass density,[4],1125 ± 0.4 kg/m3
same,surface tension liquid-gas,[4]; 298.18 K,36.3 ± 0.41 mN/m
same,surface tension liquid-gas,[4]; 308.15 K,35.2 ± 0.41 mN/m
same,surface tension liquid-gas,[4]; 318.15 K,34.4 ± 0.41 mN/m
CCO [ethanol] + COC(=O)c1ccccc1,surface tension liquid-gas,[1]; 288.15 K,23 ± 0.4 mN/m
same,surface tension liquid-gas,[1]; 298.18 K,22.3 ± 0.4 mN/m
same,surface tension liquid-gas,[1]; 308.15 K,21.5 ± 0.4 mN/m
same,surface tension liquid-gas,[1]; 318.15 K,20.6 ± 0.4 mN/m
same,refractive index,[2]; 288.15 K,1.36333 ± 0.00031
same,refractive index,[2]; 298.18 K,1.35941 ± 0.00031
same,refractive index,[2]; 308.15 K,1.35531 ± 0.00031
same,refractive index,[2]; 318.15 K,1.35148 ± 0.00031
CCO [ethanol] + CCOC(=O)CC(C)=O,surface tension liquid-gas,[1]; 288.15 K,23 ± 0.4 mN/m
same,surface tension liquid-gas,[1]; 298.18 K,22.3 ± 0.4 mN/m
same,surface tension liquid-gas,[1]; 308.15 K,21.5 ± 0.4 mN/m
same,surface tension liquid-gas,[1]; 318.15 K,20.6 ± 0.4 mN/m
same,refractive index,[2]; 288.15 K,1.3633 ± 0.0003
same,refractive index,[2]; 298.18 K,1.3594 ± 0.0003
same,refractive index,[2]; 308.15 K,1.3553 ± 0.0003
same,refractive index,[2]; 318.15 K,1.3515 ± 0.0003
CCOC(=O)CC(C)C [ethyl 3-methylbutanoate],refractive index,[3]; 288.15 K,1.3988 ± 0.00037
same,refractive index,[3]; 298.18 K,1.39401 ± 0.00037
same,refractive index,[3]; 308.15 K,1.38931 ± 0.00037
same,refractive index,[3]; 318.15 K,1.38458 ± 0.00037
same,surface tension liquid-gas,[4]; 288.15 K,24.4 ± 0.42 mN/m
same,mass density,[4],859.78 ± 0.82 kg/m3
same,surface tension liquid-gas,[4]; 298.18 K,23.5 ± 0.42 mN/m
same,surface tension liquid-gas,[4]; 308.15 K,22.45 ± 0.42 mN/m
same,surface tension liquid-gas,[4]; 318.15 K,21.6 ± 0.41 mN/m
CCO [ethanol] + CCOC(=O)CC(C)C,surface tension liquid-gas,[1]; 288.15 K,23 ± 0.4 mN/m
same,surface tension liquid-gas,[1]; 298.18 K,22.3 ± 0.4 mN/m
same,surface tension liquid-gas,[1]; 308.15 K,21.5 ± 0.4 mN/m
same,surface tension liquid-gas,[1]; 318.15 K,20.6 ± 0.4 mN/m
same,refractive index,[2]; 288.15 K,1.36333 ± 0.00031
same,refractive index,[2]; 298.18 K,1.35941 ± 0.00031
same,refractive index,[2]; 308.15 K,1.35531 ± 0.00031
same,refractive index,[2]; 318.15 K,1.35148 ± 0.00031
CCOC(=O)CC(C)=O [ethyl 3-oxobutanoate],refractive index,[3]; 288.15 K,1.4209 ± 0.0004
same,refractive index,[3]; 298.18 K,1.4166 ± 0.0004
same,refractive index,[3]; 308.15 K,1.4125 ± 0.0004
same,refractive index,[3]; 318.15 K,1.408 ± 0.0004
same,surface tension liquid-gas,[4]; 288.15 K,33.3 ± 0.42 mN/m
same,mass density,[4],1023.45 ± 0.52 kg/m3
same,surface tension liquid-gas,[4]; 298.18 K,32.3 ± 0.42 mN/m
same,surface tension liquid-gas,[4]; 308.15 K,31.1 ± 0.42 mN/m
same,surface tension liquid-gas,[4]; 318.15 K,30 ± 0.42 mN/m
CC(=O)OCc1ccccc1 [benzyl ethanoate],refractive index,[3]; 288.15 K,1.50439 ± 0.00032
same,refractive index,[3]; 298.18 K,1.49982 ± 0.00032
same,refractive index,[3]; 308.15 K,1.49539 ± 0.00032
same,refractive index,[3]; 318.15 K,1.49064 ± 0.00032
same,surface tension liquid-gas,[4]; 288.15 K,37.7 ± 0.41 mN/m
same,mass density,[4],1050.75 ± 0.3 kg/m3
same,surface tension liquid-gas,[4]; 298.18 K,36.4 ± 0.41 mN/m
same,surface tension liquid-gas,[4]; 308.15 K,35.3 ± 0.41 mN/m
same,surface tension liquid-gas,[4]; 318.15 K,34.1 ± 0.41 mN/m
